# Source: the supplement of paper PMC10307832
# Tests used:
# Test in all cases: relative viability (nuclei count vs DMSO), 5 days (fraction); higher = more cells survive
# NCI-H1355 = test system: NCI-H1355
# Procedure, shortened: (§1)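 A single step with final 0.05% Triton X-100, 1% formaldehyde and 1 ug/ml Hoechst fixed the cells and stained nuclei 5 days after treatment. Lung cancer cell lines in 1536-well plates had been treated by pin tool the day after seeding with one drug alone or a fixed anchor-drug dose plus five library-drug doses (not always all listed) in √10 steps, and nuclei were counted on 4× images. Relative viability is the ratio of nuclei in treated wells to nuclei in vehicle wells, taken as the median of duplicate plates.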
# NCI-H1975 = test system: NCI-H1975
# Procedure, shortened: as §1
# SK-MES-1 = test system: SK-MES-1
# Procedure, shortened: as §1
# HCC-78 = test system: HCC-78
# Procedure, shortened: as §1
# LCLC-97TM1 = test system: LCLC-97TM1
# Procedure, shortened: as §1
# NCI-H1651 = test system: NCI-H1651
# Procedure, shortened: as §1
# PC-3 [JPC-3] = test system: PC-3 [JPC-3]
# Procedure, shortened: as §1
# NCI-H2087 = test system: NCI-H2087
# Procedure, shortened: as §1
# LK-2 = test system: LK-2
# Procedure, shortened: as §1
# NCI-H596 = test system: NCI-H596
# Procedure, shortened: as §1
# LC-2-ad = test system: LC-2-ad
# Procedure, shortened: as §1
# NCI-H1666 = test system: NCI-H1666
# Procedure, shortened: as §1
# NCI-H838 = test system: NCI-H838
# Procedure, shortened: as §1
# NCI-H1944 = test system: NCI-H1944
# Procedure, shortened: as §1
# ChaGo-K-1 = test system: ChaGo-K-1
# Procedure, shortened: as §1
# BEN = test system: BEN
# Procedure, shortened: as §1
# LU99A = test system: LU99A
# Procedure, shortened: as §1
# LXF-289 = test system: LXF-289
# Procedure, shortened: as §1
# NCI-H650 = test system: NCI-H650
# Procedure, shortened: as §1
# NCI-H661 = test system: NCI-H661
# Procedure, shortened: as §1
compound,measurement,setting,value
COc1nc(C)cnc1NS(=O)(=O)c1cccnc1-c1ccc(-c2nnco2)cc1 [Zibotentan] + CC1(C)CCC(c2ccc(Cl)cc2)=C(CN2CCN(c3ccc(C(=O)NS(=O)(=O)c4ccc(N[C@H](CCN5CCOCC5)CSc5ccccc5)c(S(=O)(=O)C(F)(F)F)c4)cc3)CC2)C1 [Navitoclax] (partner 0.5 µM),relative viability,NCI-H1355; first compound 0.08 µM,0.991
same,relative viability,NCI-H1355; first compound 0.253 µM,0.968
same,relative viability,NCI-H1355; first compound 0.8 µM,0.928
same,relative viability,NCI-H1355; first compound 2.53 µM,1.1
same,relative viability,NCI-H1975; first compound 0.08 µM,1.13
same,relative viability,NCI-H1975; first compound 0.253 µM,1.05
same,relative viability,NCI-H1975; first compound 0.8 µM,1.05
same,relative viability,NCI-H1975; first compound 2.53 µM,1.02
same,relative viability,SK-MES-1; first compound 0.08 µM,1.32
same,relative viability,SK-MES-1; first compound 0.253 µM,1.14
same,relative viability,SK-MES-1; first compound 0.8 µM,1.21
same,relative viability,SK-MES-1; first compound 2.53 µM,1.29
same,relative viability,HCC-78; first compound 0.08 µM,0.859
same,relative viability,HCC-78; first compound 0.253 µM,0.687
same,relative viability,HCC-78; first compound 0.8 µM,0.664
same,relative viability,HCC-78; first compound 2.53 µM,0.764
same,relative viability,LCLC-97TM1; first compound 0.08 µM,0.365
same,relative viability,LCLC-97TM1; first compound 0.253 µM,0.402
same,relative viability,LCLC-97TM1; first compound 0.8 µM,0.403
same,relative viability,LCLC-97TM1; first compound 2.53 µM,0.447
same,relative viability,NCI-H1651; first compound 0.08 µM,1.08
same,relative viability,NCI-H1651; first compound 0.253 µM,0.875
same,relative viability,NCI-H1651; first compound 0.8 µM,1
same,relative viability,NCI-H1651; first compound 2.53 µM,1.11
same,relative viability,PC-3 [JPC-3]; first compound 0.08 µM,0.771
same,relative viability,PC-3 [JPC-3]; first compound 0.253 µM,0.726
same,relative viability,PC-3 [JPC-3]; first compound 0.8 µM,0.795
same,relative viability,PC-3 [JPC-3]; first compound 2.53 µM,0.728
same,relative viability,NCI-H2087; first compound 0.08 µM,1.03
same,relative viability,NCI-H2087; first compound 0.253 µM,1.15
same,relative viability,NCI-H2087; first compound 0.8 µM,0.983
same,relative viability,NCI-H2087; first compound 2.53 µM,1.05
same,relative viability,LK-2; first compound 0.08 µM,1.1
same,relative viability,LK-2; first compound 0.253 µM,0.807
same,relative viability,LK-2; first compound 0.8 µM,0.806
same,relative viability,LK-2; first compound 2.53 µM,0.828
same,relative viability,NCI-H596; first compound 0.08 µM,1.19
same,relative viability,NCI-H596; first compound 0.253 µM,0.896
same,relative viability,NCI-H596; first compound 0.8 µM,0.958
same,relative viability,NCI-H596; first compound 2.53 µM,1.05
same,relative viability,LC-2-ad; first compound 0.08 µM,0.36
same,relative viability,LC-2-ad; first compound 0.253 µM,0.386
same,relative viability,LC-2-ad; first compound 0.8 µM,0.533
same,relative viability,LC-2-ad; first compound 2.53 µM,0.516
same,relative viability,NCI-H1666; first compound 0.08 µM,0.878
same,relative viability,NCI-H1666; first compound 0.253 µM,0.785
same,relative viability,NCI-H1666; first compound 0.8 µM,0.767
same,relative viability,NCI-H1666; first compound 2.53 µM,1.01
same,relative viability,NCI-H838; first compound 0.08 µM,1.15
same,relative viability,NCI-H838; first compound 0.253 µM,1.1
same,relative viability,NCI-H838; first compound 0.8 µM,1.18
same,relative viability,NCI-H838; first compound 2.53 µM,1.24
same,relative viability,NCI-H1944; first compound 0.08 µM,1.06
same,relative viability,NCI-H1944; first compound 0.253 µM,1.07
same,relative viability,NCI-H1944; first compound 0.8 µM,0.977
same,relative viability,NCI-H1944; first compound 2.53 µM,1.03
same,relative viability,ChaGo-K-1; first compound 0.08 µM,0.95
same,relative viability,ChaGo-K-1; first compound 0.8 µM,0.695
same,relative viability,ChaGo-K-1; first compound 2.53 µM,0.888
same,relative viability,BEN; first compound 0.08 µM,0.0813
same,relative viability,BEN; first compound 0.253 µM,0.0646
same,relative viability,BEN; first compound 0.8 µM,0.059
same,relative viability,BEN; first compound 2.53 µM,0.0664
same,relative viability,LU99A; first compound 0.08 µM,0.753
same,relative viability,LU99A; first compound 0.253 µM,0.768
same,relative viability,LU99A; first compound 0.8 µM,0.791
same,relative viability,LU99A; first compound 2.53 µM,0.869
same,relative viability,LXF-289; first compound 0.08 µM,0.96
same,relative viability,LXF-289; first compound 0.253 µM,0.945
same,relative viability,LXF-289; first compound 0.8 µM,0.938
same,relative viability,LXF-289; first compound 2.53 µM,0.968
COc1nc(C)cnc1NS(=O)(=O)c1cccnc1-c1ccc(-c2nnco2)cc1 [Zibotentan] + CC(C)C[C@H](NC(=O)[C@H](Cc1ccccc1)NC(=O)c1cnccn1)B(O)O [Bortezomib] (partner 0.002 µM),relative viability,NCI-H1355; first compound 0.08 µM,1.2
same,relative viability,NCI-H1355; first compound 0.253 µM,1.36
same,relative viability,NCI-H1355; first compound 0.8 µM,1.05
same,relative viability,NCI-H1355; first compound 2.53 µM,1.24
same,relative viability,NCI-H1975; first compound 0.08 µM,0.378
same,relative viability,NCI-H1975; first compound 0.253 µM,0.293
same,relative viability,NCI-H1975; first compound 0.8 µM,0.411
same,relative viability,NCI-H1975; first compound 2.53 µM,0.419
same,relative viability,HCC-78; first compound 0.08 µM,0.473
same,relative viability,HCC-78; first compound 0.253 µM,0.443
same,relative viability,HCC-78; first compound 0.8 µM,0.563
same,relative viability,HCC-78; first compound 2.53 µM,0.485
same,relative viability,LCLC-97TM1; first compound 0.08 µM,0.631
same,relative viability,LCLC-97TM1; first compound 0.8 µM,0.657
same,relative viability,LCLC-97TM1; first compound 2.53 µM,0.688
same,relative viability,NCI-H1651; first compound 0.08 µM,0.981
same,relative viability,NCI-H1651; first compound 0.253 µM,0.871
same,relative viability,NCI-H1651; first compound 0.8 µM,0.902
same,relative viability,NCI-H1651; first compound 2.53 µM,0.972
same,relative viability,PC-3 [JPC-3]; first compound 0.08 µM,0.906
same,relative viability,PC-3 [JPC-3]; first compound 0.253 µM,0.838
same,relative viability,PC-3 [JPC-3]; first compound 0.8 µM,0.839
same,relative viability,PC-3 [JPC-3]; first compound 2.53 µM,0.807
same,relative viability,NCI-H2087; first compound 0.08 µM,0.939
same,relative viability,NCI-H2087; first compound 0.253 µM,0.801
same,relative viability,NCI-H2087; first compound 0.8 µM,0.736
same,relative viability,NCI-H2087; first compound 2.53 µM,0.873
same,relative viability,NCI-H596; first compound 0.08 µM,0.966
same,relative viability,NCI-H596; first compound 0.253 µM,0.935
same,relative viability,NCI-H596; first compound 0.8 µM,1.06
same,relative viability,NCI-H596; first compound 2.53 µM,1.31
same,relative viability,LC-2-ad; first compound 0.08 µM,1.03
same,relative viability,LC-2-ad; first compound 0.253 µM,0.932
same,relative viability,LC-2-ad; first compound 0.8 µM,0.921
same,relative viability,LC-2-ad; first compound 2.53 µM,1.07
same,relative viability,NCI-H1666; first compound 0.08 µM,0.76
same,relative viability,NCI-H1666; first compound 0.253 µM,0.599
same,relative viability,NCI-H1666; first compound 0.8 µM,0.8
same,relative viability,NCI-H1666; first compound 2.53 µM,1
same,relative viability,NCI-H838; first compound 0.08 µM,0.891
same,relative viability,NCI-H838; first compound 0.253 µM,0.865
same,relative viability,NCI-H838; first compound 0.8 µM,0.815
same,relative viability,NCI-H838; first compound 2.53 µM,0.961
same,relative viability,NCI-H650; first compound 0.08 µM,0.769
same,relative viability,NCI-H650; first compound 0.253 µM,0.742
same,relative viability,NCI-H650; first compound 0.8 µM,0.726
same,relative viability,NCI-H650; first compound 2.53 µM,0.696
same,relative viability,NCI-H661; first compound 0.08 µM,1.02
same,relative viability,NCI-H661; first compound 0.253 µM,0.656
same,relative viability,NCI-H661; first compound 0.8 µM,0.89
same,relative viability,NCI-H661; first compound 2.53 µM,0.841
same,relative viability,ChaGo-K-1; first compound 0.08 µM,0.956
same,relative viability,ChaGo-K-1; first compound 0.8 µM,0.977
same,relative viability,ChaGo-K-1; first compound 2.53 µM,0.99
same,relative viability,BEN; first compound 0.08 µM,0.912
same,relative viability,BEN; first compound 0.253 µM,0.824
same,relative viability,BEN; first compound 0.8 µM,0.792
same,relative viability,BEN; first compound 2.53 µM,0.593
same,relative viability,LU99A; first compound 0.08 µM,1.3
same,relative viability,LU99A; first compound 0.253 µM,1.13
same,relative viability,LU99A; first compound 0.8 µM,1.23
same,relative viability,LU99A; first compound 2.53 µM,1.17
same,relative viability,LXF-289; first compound 0.08 µM,1.05
same,relative viability,LXF-289; first compound 0.253 µM,0.993
same,relative viability,LXF-289; first compound 0.8 µM,1.05
same,relative viability,LXF-289; first compound 2.53 µM,0.989
